Like-named read-outs stand apart in the source and are kept apart here.
What was measured:
[1] = tested on: CCRF-CEM; assay type: cell-based, human; settings: 10^Δ2-x, relative to compound 2
[2] = tested on: HL-60(TB); assay type: cell-based, human; settings: 10^Δ2-x, relative to compound 2
[3] = tested on: K-562; assay type: cell-based, human; settings: 10^Δ2-x, relative to compound 2
[4] = tested on: RPMI-8226; assay type: cell-based, human; settings: 10^Δ2-x, relative to compound 2
[5] = tested on: SR; assay type: cell-based, human; settings: 10^Δ2-x, relative to compound 2
[6] = tested on: A549/ATCCC; assay type: cell-based, human; settings: 10^Δ2-x, relative to compound 2
[7] = tested on: EKVX; assay type: cell-based, human; settings: 10^Δ2-x, relative to compound 2
[8] = tested on: HOP-62; assay type: cell-based, human; settings: 10^Δ2-x, relative to compound 2
[9] = tested on: HOP-92; assay type: cell-based, human; settings: 10^Δ2-x, relative to compound 2
[10] = tested on: NCI-H226; assay type: cell-based, human; settings: 10^Δ2-x, relative to compound 2
[11] = tested on: NCI-H23; assay type: cell-based, human; settings: 10^Δ2-x, relative to compound 2
[12] = tested on: NCI-H460; assay type: cell-based, human; settings: 10^Δ2-x, relative to compound 2
[13] = tested on: NCI-H522; assay type: cell-based, human; settings: 10^Δ2-x, relative to compound 2
[14] = tested on: COLO 205; assay type: cell-based, human; settings: 10^Δ2-x, relative to compound 2
[15] = tested on: HCC-2998; assay type: cell-based, human; settings: 10^Δ2-x, relative to compound 2
[16] = tested on: HCT-116; assay type: cell-based, human; settings: 10^Δ2-x, relative to compound 2
[17] = tested on: HT29; assay type: cell-based, human; settings: 10^Δ2-x, relative to compound 2
[18] = tested on: KM12; assay type: cell-based, human; settings: 10^Δ2-x, relative to compound 2
[19] = tested on: SF-268; assay type: cell-based, human; settings: 10^Δ2-x, relative to compound 2
[20] = tested on: SF-539; assay type: cell-based, human; settings: 10^Δ2-x, relative to compound 2
[21] = tested on: SNB-19; assay type: cell-based, human; settings: 10^Δ2-x, relative to compound 2
[22] = tested on: SNB-75; assay type: cell-based, human; settings: 10^Δ2-x, relative to compound 2
[23] = tested on: U251; assay type: cell-based, human; settings: 10^Δ2-x, relative to compound 2
[24] = tested on: M14; assay type: cell-based, human; settings: 10^Δ2-x, relative to compound 2
[25] = tested on: SK-MEL2; assay type: cell-based, human; settings: 10^Δ2-x, relative to compound 2
[26] = tested on: SK-MEL28; assay type: cell-based, human; settings: 10^Δ2-x, relative to compound 2
[27] = tested on: UACC-257; assay type: cell-based, human; settings: 10^Δ2-x, relative to compound 2
[28] = tested on: UACC-62; assay type: cell-based, human; settings: 10^Δ2-x, relative to compound 2
[29] = tested on: IGROV1; assay type: cell-based, human; settings: 10^Δ2-x, relative to compound 2
[30] = tested on: OVCAR-3; assay type: cell-based, human; settings: 10^Δ2-x, relative to compound 2
[31] = tested on: OVCAR-4; assay type: cell-based, human; settings: 10^Δ2-x, relative to compound 2
[32] = tested on: OVCAR-5; assay type: cell-based, human; settings: 10^Δ2-x, relative to compound 2
[33] = tested on: OVCAR-8; assay type: cell-based, human; settings: 10^Δ2-x, relative to compound 2
[34] = tested on: 786-0; assay type: cell-based, human; settings: 10^Δ2-x, relative to compound 2
[35] = tested on: A498; assay type: cell-based, human; settings: 10^Δ2-x, relative to compound 2
[36] = tested on: ACHN; assay type: cell-based, human; settings: 10^Δ2-x, relative to compound 2
[37] = tested on: CAKI-1; assay type: cell-based, human; settings: 10^Δ2-x, relative to compound 2
[38] = tested on: RXF 393; assay type: cell-based, human; settings: 10^Δ2-x, relative to compound 2
[39] = tested on: SN12C; assay type: cell-based, human; settings: 10^Δ2-x, relative to compound 2
[40] = tested on: PC-3; assay type: cell-based, human; settings: 10^Δ2-x, relative to compound 2
[41] = tested on: MCF7; assay type: cell-based, human; settings: 10^Δ2-x, relative to compound 2
[42] = tested on: MDA-MB-231/ATCC; assay type: cell-based, human; settings: 10^Δ2-x, relative to compound 2
[43] = tested on: HS578T; assay type: cell-based, human; settings: 10^Δ2-x, relative to compound 2
[44] = tested on: BT-549; assay type: cell-based, human; settings: 10^Δ2-x, relative to compound 2
[45] = tested on: T-47D; assay type: cell-based, human; settings: 10^Δ2-x, relative to compound 2
[46] = tested on: 60 cancer cell lines; assay: cells; assay type: cell-based, human; settings: for GI50: Homo sapiens
[47] = tested on: COLO-205 (colon), A549 (non-small cell lung) and BXCP3 (pancreas); assay: cells; assay type: cell-based; settings: 72 h, read-out: average GI50 (50% of growth inhibition)
[48] = tested on: panel of 12 tumor cell lines implanted in mice; assay: NCI hollow fiber assay; assay type: in vivo
[49] = Plasma pharmacokinetics; assay type: in vivo, CD-1 mice; settings: mice, iv 18 mg/kg
[50] = tested on: SK-MEL-2 melanoma cells; assay: Subcutaneous SK-MEL-2 melanoma xenograft; assay type: in vivo, athymic nu/nu mice; settings: iv q2dx10 at 10 mg/Kg and q3dx10 at 20 mg/Kg
[51] = CD-1, mouse, in vivo
[52] = tested on: EWS-FLI1 transcription factor; settings: compared to 1, as opposed to a non-specific promoter; cited from earlier work

Which activity improvement factor [1] does the source give for `CO[C@@H]([C@@H]1Cc2cc3cc(O[C@H]4C[C@@H](O[C@H]5C[C@@H](O)[C@H](O)[C@@H](C)O5)[C@H](O)[C@@H](C)O4)c(C)c(O)c3c(O)c2C(=O)[C@H]1O[C@H]1C[C@@H](O[C@H]2C[C@@H](O[C@H]3C[C@H](O)[C@H](O)[C@@H](C)O3)[C@H](O)[C@@H](C)O2)[C@H](O)[C@@H](C)O1)[C@@H](O)C(C)=O` [Compound 9, demycarosyl-3D-β-D-digitoxosyl-mithramycin SK] here?
Its activity improvement factor is 1.14.

What about the activity improvement factor [2] of the same molecule?
Its activity improvement factor is 2.24.

What about the activity improvement factor [3] of the same molecule?
The activity improvement factor was 1.40.

And the activity improvement factor [4]?
Its activity improvement factor is 0.73.

What about the activity improvement factor [5] of the same molecule?
Its activity improvement factor is 1.11.

And the activity improvement factor [6]?
The activity improvement factor was 2.04.

And the activity improvement factor [7]?
Its activity improvement factor is 1.60.

What about the activity improvement factor [8] of the same molecule?
The activity improvement factor was 2.26.

And the activity improvement factor [9]?
Its activity improvement factor is 1.11.

What about the activity improvement factor [10] of the same molecule?
The activity improvement factor was 2.26.

What about the activity improvement factor [11] of the same molecule?
The activity improvement factor was 1.86.

And the activity improvement factor [12]?
Its activity improvement factor is 1.19.

And the activity improvement factor [13]?
The activity improvement factor was 0.79.

What about the activity improvement factor [14] of the same molecule?
Its activity improvement factor is 2.26.

What about the activity improvement factor [15] of the same molecule?
The activity improvement factor was 3.76.

What about the activity improvement factor [16] of the same molecule?
Its activity improvement factor is 1.17.

What about the activity improvement factor [17] of the same molecule?
The activity improvement factor was 3.55.

And the activity improvement factor [18]?
Its activity improvement factor is 1.66.

What about the activity improvement factor [19] of the same molecule?
Its activity improvement factor is 1.40.

What about the activity improvement factor [20] of the same molecule?
Its activity improvement factor is 1.30.

What about the activity improvement factor [21] of the same molecule?
Its activity improvement factor is 1.55.

What about the activity improvement factor [22] of the same molecule?
The activity improvement factor was 0.93.

What about the activity improvement factor [23] of the same molecule?
Its activity improvement factor is 1.26.

What about the activity improvement factor [24] of the same molecule?
The activity improvement factor was 2.19.

What about the activity improvement factor [25] of the same molecule?
The activity improvement factor was 1.23.

What about the activity improvement factor [26] of the same molecule?
Its activity improvement factor is 1.46.

What about the activity improvement factor [27] of the same molecule?
The activity improvement factor was 1.66.

What about the activity improvement factor [28] of the same molecule?
The activity improvement factor was 1.02.

What about the activity improvement factor [29] of the same molecule?
The activity improvement factor was 7.16.

What about the activity improvement factor [30] of the same molecule?
The activity improvement factor was 3.51.

What about the activity improvement factor [31] of the same molecule?
Its activity improvement factor is 3.76.

What about the activity improvement factor [32] of the same molecule?
Its activity improvement factor is 1.97.

What about the activity improvement factor [33] of the same molecule?
The activity improvement factor was 1.51.

And the activity improvement factor [34]?
The activity improvement factor was 1.88.

What about the activity improvement factor [35] of the same molecule?
Its activity improvement factor is 2.24.

What about the activity improvement factor [36] of the same molecule?
The activity improvement factor was 4.47.

What about the activity improvement factor [37] of the same molecule?
The activity improvement factor was 1.64.

What about the activity improvement factor [38] of the same molecule?
The activity improvement factor was 0.86.

What about the activity improvement factor [39] of the same molecule?
Its activity improvement factor is 1.70.

What about the activity improvement factor [40] of the same molecule?
Its activity improvement factor is 4.62.

What about the activity improvement factor [41] of the same molecule?
The activity improvement factor was 0.92.

What about the activity improvement factor [42] of the same molecule?
The activity improvement factor was 2.75.

What about the activity improvement factor [43] of the same molecule?
Its activity improvement factor is 1.76.

And the activity improvement factor [44]?
Its activity improvement factor is 0.94.

And the activity improvement factor [45]?
The activity improvement factor was 1.74.

And the GI50 ([46]; read-out: Mean GI50)?
Its GI50 is 30 nM.

And the GI50 ([46]; read-out: Mean log(GI50) (converted))?
The GI50 was 30.2 nM.

And the “fold more active than 10, in average” value ([46]; NCI-60 GI50)?
Its value is “about 5 fold”.

What about the GI50 [47] of the same molecule?
Its GI50 is 300 to 1300 nM.

And the “hollow fiber assay total score” value ([48]; 12 tumor cell lines, daily ip for four days)?
Its value is 66/96.

What about the “hollow fiber assay intraperitoneal score” value ([48]; intraperitoneal implants) of the same molecule?
The value was 36/48.

What about the “hollow fiber assay subcutaneous score” value ([48]; subcutaneous implants) of the same molecule?
The value was 30/48.

What about the plasma level ([49]; after 30 min) of the same molecule?
The plasma level was ~1,7 μM.

And the plasma level ([49]; after 120 min)?
Its plasma level is “below 0,1 μM”.

What about the “growth of SK-MEL-2 human melanoma xenografts” value [50] of the same molecule?
The value was “markedly delayed”.

What about the “fold less toxic than compound 3” value [51] of the same molecule?
The value was “about 2 fold”.

What about the “inhibition of luciferase activity driven by NRB01” value [52] of the same molecule?
Its value is “inhibits more effectively”.

— publication PMC3395220 (Journal of Medicinal Chemistry, 2012)
